Data on 23 molecules can be found in patent US20180280377A1, “Imidazo[4,5-c]quinolin-2-one Compounds and Their Use in Treating Cancer” (ASTRAZENECA AB, priority 2015, published 2018).

The target in one assay is T1, ATR (Homo sapiens, UniProt Q13535).
T1 construct: endogenous in cells; host or cells: HT29 cells (ECACC #85061109)
The experiment in a line: ATR cellular potency assay (pChk1 Ser345 in HT29 cells after 4NQO). It counts as cell-based. As to conditions: pChk1 (Ser 345); Table 2; read-out: Assay b) ATR Cell IC50. On the procedure: (§1) The following assays were used to measure the effects of the compounds of the present invention: a) ATM cellular potency assay; b) PI3K cellular potency assay; c) mTOR cellular potency assay; d) ATR cellular potency assay. During the description of the assays, generally: • i. […] IC50 values were calculated using a smart fitting model in Genedata.
ATR is a PI3-kinase-related kinase which phosphorylates multiple substrates on serine or threonine residues in response to DNA damage during or replication blocks. Chk1, a downstream protein kinase of ATR, plays a key role in DNA damage checkpoint control. Activation of Chk1 involves phosphorylation of Ser317 and Ser345 (the latter regarded as the preferential target for phosphorylation/activation by ATR).
The following morning compound of Formula (I) in 100% DMSO were added to assay plates by acoustic dispensing. After 1 h incubation at 37° C. and 5% CO2, 40 nl of 3 mM 4NQO in 100% DMSO was added to all wells by acoustic dispensing, except minimum control wells which were left untreated with 4NQO to generate a null response control. Plates were returned to the incubator for a further 1 h. Then cells were fixed by adding 20 μl of 3.7% formaldehyde in PBS solution and incubating for 20 mins at r.t. Then […] of 0.1% Triton X100 in PBS was added and incubated for 10 minutes at r.t., to permeabalise cells. Then the plates were washed once with […] PBS, using a Biotek EL405 plate washer.
After 2 h incubation at r.t., the plates were washed three times with […] PBS, using a Biotek EL405 plate washer, and plates were then sealed with black plate seals until read. Plates were read using an ArrayScan VTI instrument, using an XF53 filter with 10× objective.

In the next assay the target is T2, ATM (Homo sapiens, UniProt Q13315).
T2 construct: endogenous in cells; host or cells: HT29 cells (ECACC #85061109)
The experiment in a line: ATM cellular potency assay (pATM Ser1981 in irradiated HT29 cells). The note with it: 1 h compound, X-ray irradiation, pATM (Ser1981); Table 2; read-out: Assay a) ATM Cell IC50. Format: cell-based. On the procedure:
as §1
Most ATM molecules in the cell are rapidly phosphorylated on this site after doses of radiation as low as 0.5 Gy, and binding of a phosphospecific antibody is detectable after the introduction of only a few DNA double-strand breaks in the cell.
The rationale of the pATM assay is to identify inhibitors of ATM in cells. HT29 cells are incubated with test compounds for 1 h prior to X-ray-irradiation. 1 h later the cells are fixed and stained for pATM (Ser1981). The fluorescence is read on the arrayscan imaging platform.
The following morning compounds of Formula (I) in 100% DMSO were added to assay plates by acoustic dispensing. After 1 h incubation at 37° C. and 5% CO2, plates (up to 6 at a time) were irradiated using the X-RAD 320 instrument (PXi) with equivalent to 600 cGy. Plates were returned to the incubator for a further 1 h. Then cells were fixed by adding 20 μl of 3.7% formaldehyde in PBS solution and incubating for 20 minutes at r.t. before being washed with 50μl/well PBS, using a Biotek EL405 plate washer. Then 20 μl of 0.1% Triton X100 in PBS was added and incubated for 20 minutes at r.t., to permeabalise cells. Then the plates were washed once with 50 μl/well PBS, using a Biotek EL405 plate washer.
After 1 h incubation at r.t., the plates were washed three times with 50 μl/well PBS, using a Biotek EL405 plate washer, and plates were sealed and kept in PBS at 4° C. until read. Plates were read using an ArrayScan VTI instrument, using an XF53 filter with 10× objective.

T1 sequence (Q13535 whole entry): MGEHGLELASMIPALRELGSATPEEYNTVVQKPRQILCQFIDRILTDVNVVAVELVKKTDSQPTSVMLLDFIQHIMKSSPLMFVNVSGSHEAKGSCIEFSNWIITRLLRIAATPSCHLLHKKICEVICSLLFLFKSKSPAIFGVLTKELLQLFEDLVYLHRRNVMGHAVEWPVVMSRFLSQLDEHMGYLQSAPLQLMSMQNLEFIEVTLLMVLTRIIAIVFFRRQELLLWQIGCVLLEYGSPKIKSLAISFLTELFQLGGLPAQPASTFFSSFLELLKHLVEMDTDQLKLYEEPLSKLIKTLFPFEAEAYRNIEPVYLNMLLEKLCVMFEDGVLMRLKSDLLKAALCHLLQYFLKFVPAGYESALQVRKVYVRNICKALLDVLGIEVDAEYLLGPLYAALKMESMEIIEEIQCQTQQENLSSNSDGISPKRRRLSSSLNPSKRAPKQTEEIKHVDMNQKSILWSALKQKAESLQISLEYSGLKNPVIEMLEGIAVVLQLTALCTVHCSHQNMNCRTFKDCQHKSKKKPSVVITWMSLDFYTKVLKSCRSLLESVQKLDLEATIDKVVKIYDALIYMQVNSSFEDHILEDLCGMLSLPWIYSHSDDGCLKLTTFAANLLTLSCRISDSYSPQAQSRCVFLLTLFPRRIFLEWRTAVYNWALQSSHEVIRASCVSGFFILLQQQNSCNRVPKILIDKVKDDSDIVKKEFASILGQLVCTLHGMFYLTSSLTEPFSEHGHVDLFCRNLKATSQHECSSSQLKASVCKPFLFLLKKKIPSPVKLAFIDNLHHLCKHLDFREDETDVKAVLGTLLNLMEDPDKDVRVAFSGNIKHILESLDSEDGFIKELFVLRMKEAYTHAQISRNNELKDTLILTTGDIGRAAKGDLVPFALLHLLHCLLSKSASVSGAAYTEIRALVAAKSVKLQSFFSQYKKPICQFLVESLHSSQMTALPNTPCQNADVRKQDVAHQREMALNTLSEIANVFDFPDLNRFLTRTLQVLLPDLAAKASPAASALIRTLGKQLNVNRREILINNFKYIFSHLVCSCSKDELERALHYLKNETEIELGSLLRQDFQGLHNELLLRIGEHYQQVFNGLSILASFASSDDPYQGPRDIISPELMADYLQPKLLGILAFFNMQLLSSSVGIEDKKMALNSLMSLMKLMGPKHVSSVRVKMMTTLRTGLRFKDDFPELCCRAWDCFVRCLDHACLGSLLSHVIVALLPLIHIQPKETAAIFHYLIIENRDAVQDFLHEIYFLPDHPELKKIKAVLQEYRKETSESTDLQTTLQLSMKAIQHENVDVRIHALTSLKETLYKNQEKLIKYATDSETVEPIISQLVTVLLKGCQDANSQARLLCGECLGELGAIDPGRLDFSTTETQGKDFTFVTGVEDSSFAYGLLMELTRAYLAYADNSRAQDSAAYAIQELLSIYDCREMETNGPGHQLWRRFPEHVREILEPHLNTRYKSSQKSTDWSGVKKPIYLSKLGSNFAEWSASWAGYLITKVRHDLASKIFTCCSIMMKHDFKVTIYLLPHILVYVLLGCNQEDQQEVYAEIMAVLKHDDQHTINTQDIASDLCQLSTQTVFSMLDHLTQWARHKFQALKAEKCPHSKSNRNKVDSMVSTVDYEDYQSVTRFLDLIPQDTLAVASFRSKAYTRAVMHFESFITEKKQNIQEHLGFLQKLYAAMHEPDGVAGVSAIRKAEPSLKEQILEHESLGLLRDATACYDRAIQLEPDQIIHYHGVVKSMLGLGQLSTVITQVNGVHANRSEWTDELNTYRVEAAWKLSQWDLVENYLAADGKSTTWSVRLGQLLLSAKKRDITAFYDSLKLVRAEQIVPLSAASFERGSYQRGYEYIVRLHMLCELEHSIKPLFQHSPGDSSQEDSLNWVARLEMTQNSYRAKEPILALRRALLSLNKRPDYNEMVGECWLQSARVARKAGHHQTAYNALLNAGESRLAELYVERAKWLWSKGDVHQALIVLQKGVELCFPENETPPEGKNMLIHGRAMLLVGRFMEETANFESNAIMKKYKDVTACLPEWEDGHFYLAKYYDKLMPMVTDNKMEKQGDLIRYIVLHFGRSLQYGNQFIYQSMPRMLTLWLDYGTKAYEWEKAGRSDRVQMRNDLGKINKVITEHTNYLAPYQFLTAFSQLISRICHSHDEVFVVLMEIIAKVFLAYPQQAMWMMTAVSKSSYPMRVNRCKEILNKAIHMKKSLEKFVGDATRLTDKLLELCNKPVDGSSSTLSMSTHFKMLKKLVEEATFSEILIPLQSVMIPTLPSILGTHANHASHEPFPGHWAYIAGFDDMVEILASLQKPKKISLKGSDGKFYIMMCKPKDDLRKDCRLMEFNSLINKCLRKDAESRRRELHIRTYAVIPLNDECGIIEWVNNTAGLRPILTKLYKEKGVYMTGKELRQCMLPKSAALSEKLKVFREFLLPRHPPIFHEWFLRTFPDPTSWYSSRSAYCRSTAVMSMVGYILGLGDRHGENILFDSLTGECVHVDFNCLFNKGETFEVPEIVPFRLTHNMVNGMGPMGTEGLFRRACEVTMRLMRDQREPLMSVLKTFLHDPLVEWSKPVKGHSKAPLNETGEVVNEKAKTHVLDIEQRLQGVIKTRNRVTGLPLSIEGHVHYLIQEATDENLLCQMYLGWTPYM
T1 sequence (Q8WXE1 whole entry partner): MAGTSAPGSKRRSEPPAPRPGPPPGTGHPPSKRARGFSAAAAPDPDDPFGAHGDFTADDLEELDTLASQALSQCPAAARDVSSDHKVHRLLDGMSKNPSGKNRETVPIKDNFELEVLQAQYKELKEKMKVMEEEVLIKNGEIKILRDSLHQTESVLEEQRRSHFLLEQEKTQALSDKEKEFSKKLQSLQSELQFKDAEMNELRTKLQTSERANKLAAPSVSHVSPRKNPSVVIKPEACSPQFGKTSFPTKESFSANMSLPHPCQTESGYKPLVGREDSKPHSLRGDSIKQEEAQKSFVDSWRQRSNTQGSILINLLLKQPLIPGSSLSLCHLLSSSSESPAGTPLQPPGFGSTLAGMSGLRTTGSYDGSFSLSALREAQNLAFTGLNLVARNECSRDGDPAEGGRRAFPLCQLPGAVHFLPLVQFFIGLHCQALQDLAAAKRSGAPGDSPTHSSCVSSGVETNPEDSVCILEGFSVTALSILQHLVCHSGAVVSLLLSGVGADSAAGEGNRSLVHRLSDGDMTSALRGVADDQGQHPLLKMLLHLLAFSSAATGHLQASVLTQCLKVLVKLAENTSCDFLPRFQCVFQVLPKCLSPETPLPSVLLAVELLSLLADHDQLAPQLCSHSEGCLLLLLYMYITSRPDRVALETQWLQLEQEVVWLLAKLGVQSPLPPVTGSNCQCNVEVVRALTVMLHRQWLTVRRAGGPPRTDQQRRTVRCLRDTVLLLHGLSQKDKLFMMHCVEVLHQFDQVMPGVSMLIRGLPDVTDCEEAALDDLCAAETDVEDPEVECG

Take “8-[6-[4-(dimethylamino)-1-piperidyl]-3-pyridyl-3-methyl-1-tetrahydropyran-4-yl-imidazo[4,5-c]quinolin-2-one [Example 39]”: the IC50 at ATR is over 30000 nM; on ATM, 2.69 nM.

Regarding `CO[C@H]1CC[C@H](n2c(=O)n(C)c3cnc4ccc(-c5ccc(N6CC(N(C)C)C6)nc5)cc4c32)C1` (single isomer, unassigned) [Example 22, 8-[6-[3-(dimethylamino)azetidin-1-yl]-3-pyridyl]-1-[trans-3-methoxycyclopentyl]-3-methyl-imidazo[4,5-c]quinolin-2-one], the IC50 at ATR was determined as 6710 nM; on ATM, 13.4 nM.

For the molecule `CO[C@H]1CC[C@H](n2c(=O)n(C)c3cnc4ccc(-c5ccc(N6CC(N(C)C)C6)nc5)cc4c32)C1` (single isomer, unassigned) [Example 23, 8-[6-[3-(dimethylamino)azetidin-1-yl]-3-pyridyl]-1-[trans-3-methoxycyclopentyl]-3-methyl-imidazo[4,5-c]quinolin-2-one], the results for the IC50 on ATR and at ATM were over 24000 nM and 22.8 nM, respectively. The like results for `CO[C@H]1CC[C@H](n2c(=O)n(C)c3cnc4cc(F)c(-c5ccc(N6CC(N(C)C)C6)nc5)cc4c32)C1` (single isomer, unassigned) [Example 29, 8-[6-[3-(dimethylamino)azetidin-1-yl]-3-pyridyl]-7-fluoro-1-[trans-3-methoxycyclopentyl]-3-methyl-imidazo[4,5-c]quinolin-2-one] were, in that order, over 30000 nM and 9.68 nM.

On to `CO[C@H]1CC[C@H](n2c(=O)n(C)c3cnc4cc(F)c(-c5ccc(N6CC(N(C)C)C6)nc5)cc4c32)C1` (single isomer, unassigned) [Example 30, 8-[6-[3-(dimethylamino)azetidin-1-yl]-3-pyridyl]-7-fluoro-1-[trans-3-methoxycyclopently]-3-methyl-imidazo[4,5-c]quinolin-2-one], for which the IC50 at ATR was over 30000 nM; on ATM, 24.9 nM. The matching figures for `CO[C@H]1CC[C@@H](n2c(=O)n(C)c3cnc4ccc(-c5ccc(N6CC[C@@H](N(C)C)C6)nc5)cc4c32)CC1` (single isomer, unassigned) [Example 44]: 1120 nM and 0.889 nM.

Take `CO[C@@H]1CCC[C@H](n2c(=O)n(C)c3cnc4ccc(-c5ccc(N6CCC(N(C)C)CC6)nc5)cc4c32)C1` (single isomer, unassigned) [Example 45]: the results for the IC50 at ATR and at ATM were over 30000 nM and 0.618 nM, respectively. The like results for `CO[C@@H]1CCC[C@H](n2c(=O)n(C)c3cnc4ccc(-c5ccc(N6CCC(N(C)C)CC6)nc5)cc4c32)C1` (single isomer, unassigned) [Example 46, 8-[6-[4-(dimethylamino)-1-piperidyl]-3-pyridyl]-1-[cis-3-methoxycyclohexyl]-3-methyl-imidazo[4,5-c]quinolin-2-one] were, in that order, over 10000 nM and 7.7 nM. The matching figures for `CO[C@@H]1CCC[C@H](n2c(=O)n(C)c3cnc4ccc(-c5ccc(N6CC[C@@H](N(C)C)C6)nc5)cc4c32)C1` (single isomer, unassigned) [Example 47]: 1800 nM and 2.7 nM.

Turning to `CO[C@@H]1CCC[C@H](n2c(=O)n(C)c3cnc4ccc(-c5ccc(N6CC[C@@H](N(C)C)C6)nc5)cc4c32)C1` (single isomer, unassigned) [Example 48], the values for the IC50 on ATR and on ATM were 201 nM and 2.34 nM, respectively. With `CO[C@@H]1CCC[C@H](n2c(=O)n(C)c3cnc4ccc(-c5ccc(N6CC(N(C)C)C6)nc5)cc4c32)C1` (single isomer, unassigned) [Example 49, 8-[6-[3-(dimethylamino)azetidin-1-yl]-3-pyridyl]-1-[cis-3-methoxycyclohexyl]-3-methyl-imidazo[4,5-c]quinoline-2-one], the IC50 on ATR came to 1910 nM; at ATM it was 15.3 nM.

As to `CO[C@@H]1CCC[C@H](n2c(=O)n(C)c3cnc4ccc(-c5ccc(N6CC(N(C)C)C6)nc5)cc4c32)C1` (single isomer, unassigned) [Example 50, 8-[6-[3-(dimethylamino)azetidin-1-yl]-3-pyridyl]-1-[cis-3-methoxycyclohexyl]-3-methyl-imidazo[4,5-c]quinolin-2-one], the IC50 on ATR was 1970 nM; at ATM it was 16.7 nM. The like results for `CO[C@H]1CCC[C@H](n2c(=O)n(C)c3cnc4ccc(-c5ccc(N6CC[C@@H](N(C)C)C6)nc5)cc4c32)C1` (single isomer, unassigned) [Example 51] were, in that order, 90.6 nM and 0.589 nM. The like results for `CO[C@H]1CCC[C@H](n2c(=O)n(C)c3cnc4ccc(-c5ccc(N6CC[C@@H](N(C)C)C6)nc5)cc4c32)C1` (single isomer, unassigned) [Example 52] were, in that order, 61.6 nM and 0.112 nM. The matching figures for `CO[C@H]1CCC[C@H](n2c(=O)n(C)c3cnc4ccc(-c5ccc(N6CCC(N(C)C)CC6)nc5)cc4c32)C1` (single isomer, unassigned) [Example 53, 8-[6-[4-(dimethylamino)-1-piperidyl]-3-pyridyl]-1-[trans-3-methoxycyclohexyl]-3-methyl-imidazo[4,5-c]quinolin-2-one]: over 21400 nM and 0.269 nM. As to `CO[C@H]1CCC[C@H](n2c(=O)n(C)c3cnc4ccc(-c5ccc(N6CCC(N(C)C)CC6)nc5)cc4c32)C1` (single isomer, unassigned) [Example 54, 8-[6-[4-(dimethylamino)-1-piperidyl]-3-pyridyl]-1-[trans-3-methoxycyclohexyl]-3-methyl-imidazo[4,5-c]quinolin-2-one], the IC50 on ATR is over 25600 nM; at ATM, 0.061 nM. The like results for `CO[C@H]1CCC[C@H](n2c(=O)n(C)c3cnc4ccc(-c5ccc(N6CC(N(C)C)C6)nc5)cc4c32)C1` (single isomer, unassigned) [Example 55, 8-[6-[3-(dimethylamino)azetidin-1-yl]-3-pyridyl]-1-[trans-3-methoxycyclohexyl]-3-methyl-imidazo[4,5-c]quinolin-2-one] were, in that order, 804 nM and 3.38 nM. For the molecule `CO[C@H]1CCC[C@H](n2c(=O)n(C)c3cnc4ccc(-c5ccc(N6CC(N(C)C)C6)nc5)cc4c32)C1` (single isomer, unassigned) [Example 56, 8-[6-[3-(dimethylamino)azetidin-1-yl]-3-pyridyl]-1-[trans-3-methoxycyclohexyl]-3-methyl-imidazo[4,5-c]quinolin-2-one], the concentration for half-maximal inhibition (IC50) at ATR is 1190 nM; on ATM, 15.7 nM. As to `CO[C@H]1CC[C@H](n2c(=O)n(C)c3cnc4ccc(-c5ccc(N6CC[C@@H](N(C)C)C6)nc5)cc4c32)C1` [Example 5, 8-[6-[(3R)-3-(Dimethylamino)pyrrolidin-1-yl]-3-pyridyl]-1-[(1S,3S)-3-methoxycyclopentyl]-3-methyl-imidazo[4,5-c]quinolin-2-one], the figures for the concentration for half-maximal inhibition (IC50) at ATR and at ATM were 284 nM and 0.312 nM, respectively. For `CO[C@H]1C[C@@H](n2c(=O)n(C)c3cnc4cc(F)c(-c5ccc(N6CC[C@@H](N(C)C)C6)nc5)cc4c32)C1` [Example 6, 8-[6-[(3R)-3-(Dimethylamino)pyrrolidin-1-yl]-3-pyridyl]-7-fluoro-1-(cis-3-methoxycyclobutyl)-3-methyl-imidazo[4,5-c]quinolin-2-one], the IC50 at ATR is over 30000 nM; on ATM it was 1.7 nM. The matching figures for `CN(C)[C@@H]1CCN(c2ccc(-c3ccc4ncc5c(c4c3)n([C@H]3CCOC3)c(=O)n5C)cn2)C1` [Example 8]: 261 nM and 1.04 nM.

For `CN(C)[C@@H]1CCN(c2ccc(-c3ccc4ncc5c(c4c3)n(C3CCOCC3)c(=O)n5C)cn2)C1` [Example 13], the IC50 on ATM was over 23.9 nM. The same measure, in the same setting: under `CN(C)[C@@H]1CCN(c2ccc(-c3cc4c(cc3F)ncc3c4n([C@@H]4CCCOC4)c(=O)n3C)cn2)C1` [Example 14] stands 1.51 nM.

By IC50 is commonly meant the concentration that gives 50% inhibition.
